The values that follow come from US20090176837A1, “COMPOUNDS WITH ACTIVITY AT RETINOIC ACID RECEPTORS” (SONY CORPORATION, priority 2006, published 2009).

One experiment has as its system NTERA-2 Cells. The experiment can be described thus: Induction of neuronal differentiation in NTERA-2 cells. The class given is cell-based.
The next experiment deals with T1, RARβ2 (Homo sapiens, UniProt P10826).
T1 construct: expressed in transfected cells
T1 sequence (P10826 1-448 isoform P10826-2): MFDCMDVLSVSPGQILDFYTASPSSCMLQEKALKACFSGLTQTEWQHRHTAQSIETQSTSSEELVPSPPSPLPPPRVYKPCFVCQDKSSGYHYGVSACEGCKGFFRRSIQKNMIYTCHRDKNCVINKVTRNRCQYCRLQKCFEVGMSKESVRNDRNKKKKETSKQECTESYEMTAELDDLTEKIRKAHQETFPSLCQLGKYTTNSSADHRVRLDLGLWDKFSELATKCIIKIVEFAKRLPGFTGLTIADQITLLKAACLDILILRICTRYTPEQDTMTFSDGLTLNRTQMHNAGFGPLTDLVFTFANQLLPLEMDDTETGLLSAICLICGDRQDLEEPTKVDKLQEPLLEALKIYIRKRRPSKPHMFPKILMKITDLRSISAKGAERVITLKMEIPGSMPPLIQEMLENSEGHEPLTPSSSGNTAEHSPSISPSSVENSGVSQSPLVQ
The experiment can be described thus: Receptor Selection and Amplification Technology (R-SAT) functional receptor assay. The following applies: for pEC50: Table 1; for % Eff.: Table 1, efficacy relative to the maximal response of the reference ligand Am-580. The class given is cell-based. The source says: The functional receptor assay, Receptor Selection and Amplification Technology (R-SAT), was used to investigate the pharmacological properties of known and novel RARβ agonists and antagonists.
Efficacy is relative to the maximal response of the reference ligand, Am-580.

Where [1] appears, read: Table 1, efficacy relative to the maximal response of the reference ligand Am-580, read-out: % Eff.
The mark [2] stands for this setting: Table 1, read-out: pEC50 (converted).

Read-outs that look alike come from different tables or passages of the source.

The pEC50 is the EC50 on a negative log10 scale, so that one unit is a factor of ten. Turning to `CCCCCCCCc1ccc(-c2ccc(C(=O)O)cc2)cc1` [Compound 6], the neuronal differentiation entry in the experiment on NTERA-2 Cells is given as “induce neuronal differentiation”. Further, on RARβ2, the pEC50 was 7.73 and the “% Eff.” value was determined as 104%. Regarding `CCCCC(CC)COc1nc(-c2ccc(C(=O)O)cc2)sc1C` (stereo not drawn) [Compound 46, 4-[4-(2-Ethyl-hexyloxy)-5-methyl-thiazol-2-yl]-benzoic acid], the Emax at RARβ2 (setting [1]) was 54%. The EC50 on RARβ2 (setting [2]) is 263 nM. For the compound `O=C(O)c1ccc(-c2ccc(OCCC=C(C3CC3)C3CC3)cc2)cc1` [Compound 47, 4′-(4,4-Dicyclopropyl-but-3-enyloxy)-biphenyl-4-carboxylic acid], at RARβ2, the “% Eff.” value came out at 58%. As for `CCCCCCCCc1ccc(-c2ccc(C(=O)OCc3ccco3)cc2)cc1` [Compound 48, 4′-Octyl-biphenyl-4-carboxylic acid furan-2-ylmethyl ester], the Emax on RARβ2 (Table 2, efficacy relative to the maximal response of the reference ligand Am-580, read-out: % Eff.) was 49%. Also, the EC50 at RARβ2 (Table 2, read-out: pEC50 (converted)) was 275 nM. Compound `CCCC1CCCC(c2ccc(-c3ccc(C(=O)O)cc3)cc2)CC1` (stereo not drawn) [Compound 49] showed a pEC50 at RARβ2 of 6.55. In addition, on RARβ2 (setting [1]), the Emax stood at 59%. As for `CCCCCCCCN1CCN(c2ccc(C(=O)O)cc2)CC1` [Compound 50, 4-(4-Octyl-piperazin-1-yl)-benzoic acid], the Emax on RARβ2 (setting [1]) was 85%. The compound further had an EC50 on RARβ2 (pEC50, Table 1) of 295 nM. Consider `CCCCCCCCOc1ccc(-c2ccc(C(=O)NCCC#N)cc2)cc1` [Compound 51, 4′-Octyloxy-biphenyl-4-carboxylic acid (2-cyano-ethyl)-amide], for which the Emax on RARβ2 (setting [1]) is 59%. Moreover, the EC50 at RARβ2 (setting [2]) was 309 nM.

For the compound `CCCCCCCCc1ccc(-c2ccc(C(=O)O)cc2)cc1` [Compound 53, 4′-Octyl[1,1′-biphenyl]-4-carboxylic acid], at RARβ2, the “% Eff.” value is 99%. Moreover, on RARβ2 (setting [2]), the EC50 is 513 nM.

On to `CCCCCCCCOc1ccc(-c2ccc(C(=O)NCCc3ccccn3)cc2)cc1` [Compound 54, 4′-Octyloxy-biphenyl-4-carboxylic acid (2-pyridin-2-yl-ethyl)-amide], for which the Emax at RARβ2 (setting [1]) amounted to 39%. At RARβ2 (setting [2]), the EC50 is 661 nM. On the same counts, the results for `CCCCCCCCc1ccc(-c2ccc(C(=O)O)c(C)c2)cc1` [Compound 55, 3-Methyl-4′-octyl[1,1′-biphenyl]-4-carboxylic acid] are 84% and 676 nM. With `Cc1sc(-c2ccc(C(=O)O)cc2)nc1OCC(=O)NC1CCCCCC1` [Compound 56, 4-(4-Cycloheptycarbamoylmethoxy-5-methyl-thiazol-2-yl)-benzoic acid], the Emax on RARβ2 (setting [1]) was determined as 105%. Further, at RARβ2 (setting [2]), the EC50 is 676 nM.

Take `Cc1sc(-c2ccc(C(=O)O)cc2)nc1OCC(=O)NC(C)CCC(C)C` (stereo not drawn) [Compound 57, 4-[4-[2-[(1,4-Dimethylpentyl)amino]-2-oxoethoxy]-5-methyl-2-thiazolyl]-benzoic acid]: on RARβ2 (setting [1]), the Emax was determined as 77%. Besides, the EC50 at RARβ2 (setting [2]) is 676 nM. On the same counts, the results for `Cc1sc(-c2ccc(C(=O)O)cc2)nc1OCC(=O)NC1CCC(C)CC1` (stereo not drawn) [Compound 58, 4-[5-Methyl-4-[2-[(4-methylcyclohexyl)amino]-2-oxoethoxy]-2-thiazolyl]-benzoic acid] are 66% and 708 nM. On to `CCCCCCCc1ccc(-c2ccc(C(=O)NCCc3ccccn3)cc2)cc1` [Compound 59, 4′-Heptyl-biphenyl-4-carboxylic acid (2-pyridin-2-yl-ethyl)-amide], for which the Emax on RARβ2 (setting [1]) amounted to 35%. The EC50 on RARβ2 (setting [2]) was 776 nM. On the same counts, the results for `CCCCCCCCc1ccc(-c2ccc(C(=O)NS(C)(=O)=O)cc2)cc1` [Compound 60, N-(4′-Octyl-biphenyl-4-carbonyl)-methanesulfonamide] are 51% and 832 nM. The like results for `Cc1sc(-c2ccc(C(=O)O)cc2)nc1OCC(=O)NC1CCCC1` [Compound 61, 4-(4-Cyclopentylcarbamoylmethoxy-5-methyl-thiazol-2-yl)-benzoic acid] were, in that order, 39% and 832 nM. On the same counts, the results for `CCCCNC(=O)COc1nc(-c2ccc(C(=O)O)cc2)sc1C` [Compound 62, 4-(4-Butylcarbamoylmethoxy-5-methyl-thiazol-2-yl)-benzoic acid] are 37% and 832 nM. On to `CCCCCCc1ccc(-c2ccc(C(=O)Nc3ccc(C)cn3)cc2)cc1` [Compound 63, 4′-Hexyl-biphenyl-4-carboxylic acid (5-methyl-pyridin-2-yl)-amide], for which the Emax at RARβ2 (setting [1]) came out at 36%. Further, on RARβ2 (setting [2]), the EC50 is 891 nM. As for `CCCCCCCCc1ccc(-c2ccc(C(=O)OCCc3ccccn3)cc2)cc1` [Compound 68], the neuronal differentiation entry in the experiment on NTERA-2 Cells was “induce neuronal differentiation”. In the case of “Imidazol-1-yl-(4-octyl-biphenyl-4-yl)-methanone [Compound 8]”, at RARβ2, the negative-log EC50 (pEC50) stood at 7.66 and the “% Eff.” value is given as 79%.
